From patent US12576107B2, “Methods of treating chronic inflammatory diseases” (METIMEDI PHARMACEUTICALS CO., LTD., priority 2018, dated 2026)

How the values were obtained:
[1] = test system: collagen-induced rheumatoid arthritis mice; experiment: Rheumatoid arthritis model, Type II collagen induction; type: in vivo, DBA1/J mice; conditions: 21 days after treatment
Protocol: Animals. […] Six-week old male DBA1/J mice were obtained from Japan SLC Inc. (Shizuoka, Japan) and bred under specific-pathogen-free (SPF) conditions. All animals were maintained in a 12-hour light/dark cycle at 22-25° C. with free access to food and water.
Preparation of agents. Two mg/mL Type II collagen was mixed with the same volume of complete Freund's adjuvant (CFA) for primary induction of rheumatoid arthritis. Two mg/mL Type II collagen was mixed with the same volume of incomplete Freund's adjuvant (IFA) for secondary induction of rheumatoid arthritis.
Primary induction: 0.1 mL of the mixed solution (Type II collagen+CFA) was injected subcutaneously into the area of 1.5 cm from the base of tail of mice. The administration site and depth were the same in all mice.
Secondary induction: 21 days after primary induction, 0.1 mL of the mixed solution (Type II collagen+IFA) was injected subcutaneously into the area of 1.5 cm from the base of tail of mice. The administration site and depth were the same in all mice.
Histological analysis. The mice foot and knee joint were dissected and fixed (4% paraformaldehyde) and decalcified for 2 days at 4° C. […] Mount with mounting medium.

lactate dehydrogenase A = experiment: Immunocytochemistry of lactate dehydrogenase A in ARPE-19 cells; type: cell-based, Human; conditions: 2.5 mM, normoxia
Protocol: Human retinal pigment epithelium cell line, ARPE-19, was purchased from American Type Culture Collection (Manassas, VA, USA). The ARPE-19 cells were maintained in RPMI1640 containing 10% fetal bovine serum (Life Technologies, Gaithersburg, MD, USA), 100 IU/ml penicillin, and 100 μg/ml streptomycin (Welgene, Daegu, South Korea).
ARPE-19 and SK-N-SH cells were fixed on bio-coated coverslips (BD bioscience, San Jose, CA, USA) by 4% PFA for 20 min and then incubated with the primary antibodies for 15 h. The primary antibodies were as follows: HIF-1a (1:300, BD Biosciences, San Jose, CA, USA); LDH-A (1:300, Santa Cruz Biotechnology, Santa Cruz, CA, USA); LDH-B (1:300, Santa Cruz Biotechnology, Santa Cruz, CA, USA); NF-κB (1:300, Santa Cruz Biotechnology, Santa Cruz, CA, USA); TLR-4 (1:300, Santa Cruz Biotechnology, Santa Cruz, CA, USA); apoE (1:200, Santa Cruz Biotechnology, Santa Cruz, CA, USA). After PBS wash, the cells were incubated with anti-mouse secondary biotinylated antibody (1:2000, Vector Laboratorie, Burlingame, CA, USA) and visualized with streptavidin conjugated to Fluorescein (Vector Laboratorie, Burlingame, CA, USA). […] Confocal fluorescence images were obtained with confocal laser scanning microscopy (LSCM, Nikon A1+, Tokyo, Japan) under a 60× oil immersion lens.

[2] = test system: LPS-injected spinal cord of rats; experiment: Multiple sclerosis / spinal cord injury model, intraspinal injection of LPS; type: in vivo, Sprague-Dawley (SD) rats; conditions: 2 mg/kg daily subcutaneous 21 days
Protocol: Animals. […] Eight-week old male Sprague-Dawley (SD) rats were obtained from Samtako Co. (Osan, Gyeonggi-do, Republic of Korea) and bred under specific-pathogen-free (SPF) conditions. All animals were maintained in a 12-hour light/dark cycle at 22-25° C. with free access to food and water.
Dissolve 1 mg of LPS powder in 1 ml of saline. Keep the tubes on ice if LPS is going to be used fresh. For long storage, use screw cap vials are preferred. The aliquots were stored at deep freezer (−20° C.). Calcium lactate was purchased from Sigma Aldrich (St. Louis, USA).
Intraspinal injection of LPS. The animals were placed in a small acrylic cage that was coupled with an anesthesia machine that allowed them to breathe freely under gaseous anesthesia (2% isoflurane, Spartanburg, SC, USA). After full anesthesia of an animal was achieved, it was positioned on an operating table (while maintaining the gaseous anesthesia). For intraspinal injection of LPS, the laminectomy site of rats was exposed. Two small holes, 1 mm apart, were made in the dura over the left dorsal column. A volume of 1 μl of LPS solution was carefully drawn up into a sterile Hamilton syringe, and the LPS solution was slowly injected into the spinal cord. The syringe maintained in place for an additional 2 min to prevent back-flux from the injection site. Then, the injection site was closed by surgical clips.
Immunohistochemistry. […]

CC(O)C(=O)[O-].CC(O)C(=O)[O-].[Ca+2] (centres unmarked) [calcium lactate]
inflammatory edema in the toes and knee joint ([1]; 2 mg/kg daily subcutaneous): clearly decreased | morphology of toes and knee joint vs. normal control [1]: morphologically recovered | lactate dehydrogenase A, immunocytochemistry (lactate dehydrogenase A): decreased | demyelinated spinal cord [2]: Recovery | microglia infiltration (Iba-1) in spinal cord [2]: reduction
